Experimental data: article PMC9090609 (RSC Advances, 2018)

System: E.c.-ALDC (acetolactate decarboxylase from Enterobacter cloacae)
Experiment: circular dichroism at […] nm, formation of
Type: biochemical
Conditions: pH 6, 30 °C; racemic substrate 5.3-53.4 mM

`CC(=O)C(C)(O)C(=O)O` (racemic) [(±)-AL] gave a Km of 12.2 mM.
